Data from PubChem BioAssay (NCI).
Values joined by “and” are separate entries in the source; they are usually repeats but may differ in a detail not shown here. Identical values can stand only once.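 Cells were grown in 96-well plates and exposed to each compound for 48 hours at five concentrations; endpoints were interpolated linearly between bracketing concentrations, or set to the highest concentration if not reached. Here, GI50 denotes the concentration required for 50% inhibition of growth. The concentration for full growth arrest is given as TGI.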

How the values were obtained:
Assay in all cases: NCI tumour cell line growth inhibition, 48 h
SN12C renal = test system: SN12C renal
COLO 205 colon = test system: COLO 205 colon
HS 578T breast = test system: HS 578T breast
UACC-62 melanoma = test system: UACC-62 melanoma
SF-295 CNS = test system: SF-295 CNS
SK-OV-3 ovarian = test system: SK-OV-3 ovarian
SNB-19 CNS = test system: SNB-19 CNS
SNB-75 CNS = test system: SNB-75 CNS
T-47D breast = test system: T-47D breast
HOP-92 NSCLC = test system: HOP-92 NSCLC

SMILES | GI50 (SN12C renal) | TGI (SN12C renal) [µM] | GI50 (COLO 205 colon) [µM] | TGI (COLO 205 colon) | GI50 (HS 578T breast) [µM] | TGI (HS 578T breast) [µM] | GI50 (UACC-62 melanoma) [µM] | TGI (UACC-62 melanoma) [µM] | GI50 (SF-295 CNS) [µM] | TGI (SF-295 CNS) [µM] | GI50 (SK-OV-3 ovarian) [µM] | TGI (SK-OV-3 ovarian) [µM] | GI50 (SNB-19 CNS) [µM] | GI50 (SNB-75 CNS) [µM] | TGI (SNB-75 CNS) [µM] | GI50 (T-47D breast) [µM] | TGI (T-47D breast) [µM] | GI50 (HOP-92 NSCLC) [µM] | TGI (HOP-92 NSCLC) [µM] | TGI (SNB-19 CNS) [µM]
Cc1ccnc(Nc2ccc([N+](=O)[O-])c(NCCN3CCOCC3)n2)c1 | 0.0425 µM and 0.048 µM | > 100 | 0.00502 | 0.0417 µM and 0.0333 µM | 0.0277 | 22.7 | 0.00382 | 18.3 | 0.00355 | 29.6 | 0.00804 | 64.7 | 0.0312 | 0.00243 | 20.1 | 26.1 | 74.9 | – | – | –
Clc1ccc2c(NCCCN3CCN(c4nc(N5CCOCC5)nc5ccccc45)CC3)ccnc2c1 | – | – | 1.66 | 3.32 µM | 1.5 | 3.72 | 1.9 | 3.36 | – | – | – | – | – | 1.85 | 3.3 | 2.32 | 5.09 | – | – | –
CC1(C)CC[C@]2(C(=O)O)CC[C@]3(C)C(=CC[C@@H]4[C@@]5(C)C/C(=C/c6ccco6)C(=O)C(C)(C)[C@@H]5CC[C@]43C)[C@@H]2C1 | 3.37 µM | 19.2 | 2.02 | 3.89 µM | 5.19 | 54.1 | 3.06 | 12.8 | 3.22 | 18.1 | 4.22 | 79.4 | 4.02 | 3.04 | 54.6 | 3.23 | 48.4 | 2.69 | 12.2 | > 100
O=C1CCS/C(=N/S(=O)(=O)c2ccc(N3N=C4c5ccccc5CC4C3c3cccs3)cc2)N1Cc1ccccc1 (stereo not given) | 18.5 µM | 38.3 | 36.8 | > 100 µM | 23.5 | 67.2 | 16.7 | 32.3 | 15.8 | 37.5 | 32.9 | 79.6 | 22.3 | 30.2 | 78.7 | 45.6 | > 100 | 35.9 | 83.7 | 77.7
O=C(C(=O)c1cc(Br)ccc1O)c1cc(Br)ccc1O | 3.47 µM | 90.9 | 18.6 | 44.5 µM | – | – | 3.94 | 17 | 1.98 | 6.27 | 4.42 | 30.2 | 4.39 | 3.26 | 29.4 | 3.87 | > 100 | 1.48 | 5.58 | > 100
CC1=C2[C@@H](CC1)[C@]1(C)O[C@@](C3CC3)(C[C@H]1OC(=O)CO)[C@H]2OC(=O)/C=C/c1ccccc1 | 0.736 µM | 25.4 | 17.9 | 35.7 µM | < 0.0153 | 0.845 | 14.3 | 29.4 | 16.1 | 30.1 | 15.6 | 29.6 | 17.6 | 12.6 | 30.5 | 12.1 | 36.6 | 13.4 | 26.7 | 35.6
